From publication PMC10820089, “Comparative Studies on the Photoreactivity, Efficacy, and Safety of Depigmenting Agents” (Pharmaceuticals, 2023)
Where “and” joins values, the source holds several entries; their conditions need not be identical. Identical values can stand only once. Like-named read-outs stand apart in the source and are kept apart here.

Columns and labels:
[1] = UV-visible spectral analysis, molar extinction coefficient (MEC); format: physicochemical; details: at 290 nm; for Absorbance (10 µg mL^−1): 10 µg mL^−1 in methanol or 20 mM NaPB pH 7.4, 10 mm path length
Text: The phototoxic potential of chemicals is related to the photochemical properties of compounds, especially light absorption within the range 290–700 nm and the generation of reactive species following absorption of UV-visible light. […] The studied depigmenting agents contain in their molecular structures π systems (some of them conjugated), phenolic and/or hydroxyl, carbonyl, and amine groups. The absorption peaks observed in the UV-visible spectra can be assigned to π-π* and n-π* electronic transitions.
As the wavelength of maximum absorbance obtained for all compounds was below 290 nm, the MEC value for each depigmenting compound was calculated at this wavelength (Table 1).
UV-visible spectral analysis was conducted as previously described. The depigmenting agents were dissolved in methanol or 20 mM sodium phosphate buffer (NaPB, pH 7.4) at 10 μg/mL (final concentration). The UV-visible absorption spectra were analyzed using a Shimadzu UV-1700 spectrophotometer (Shimadzu Corp., Kyoto, Japan) and UV-transparent quartz cuvettes (Hellma, Müllheim, Germany) with a 10 mm path length. Each spectrum was corrected for solvent-specific baseline absorption. Molar extinction coefficients (MEC) were calculated using the highest absorption peaks between 290 and 700 nm at 10 μM.

[2] = Cell viability (PrestoBlue) in B-16V melanocytes; details: mouse, B-16V melanocytes, IC50 for B-16V cell viability, 48 h treatment, 0–300 µM in DMSO
Protocol: (§1) Given that ABT is a glycosylated derivative of hydroquinone, there is a potential for the release of hydroquinone in vivo.
(§2) B-16V cells (DSMZ ACC-370, Braunschweig, Germany) were cultured in Dulbecco’s Modified Eagle’s Medium (DMEM) containing 3.7 g/L NaHCO3, 1.0 g/L d-glucose, 1 mM sodium pyruvate, and stable glutamine, supplemented with 10% (v/v) heat-inactivated fetal bovine serum (FBS), 50 U/mL penicillin, and 50 μg/mL streptomycin (all reagents from PAN-Biotech GmbH, Aidenbach, Germany). The cells were cultivated at 37 °C in a humidified atmosphere of 95% air and 5% CO2. Subculturing was performed twice a week, when the cells reached 70–80% confluence, through cell trypsinization with 0.25% Trypsin and 1 mM EDTA.4Na (PAN-Biotech GmbH, Aidenbach, Germany).
(§3) To evaluate cell viability, B-16V cells were seeded at a cell density of 3 × 10^4 cells/mL in 96-well plates and allowed to proliferate for 48 h. […] Then, PrestoBlue® reagent (Invitrogen, Waltham, MA, USA) was added to each well. When entering a living cell, the PrestoBlue® reagent is reduced from resazurin to resorufin, whose fluorescence is proportional to the number of metabolically active cells. Fluorescence was measured at an excitation/emission wavelength of 530/590 nm in an automated microplate reader (Synergy HT, Biotek Instruments Inc., Winooski, VT, USA).
(§4) GraphPad Prism 9.5.1 was used to fit non-linear regression to the data and calculate the IC50 values of depigmenting compounds for B-16V cell viability.

[3] = system: Tyrosinase from Agaricus bisporus; test: Tyrosinase inhibition assay (L-tyrosine substrate); format: biochemical; details: for % Inhib (150 µM) of tyrosinase activity: 150 µM compound, n = 3
Protocol: Sodium phosphate monobasic monohydrate was obtained from Fluka (Buchs, Switzerland). Sodium phosphate dibasic anhydrous and methanol were obtained from Carlo Erba Reagents (Val-de-Reuil, France). Imidazole, p-nitroso dimethylaniline (RNO), and nitro blue tetrazolium chloride (NBT) were purchased from Alfa Aesar (Ward Hill, MA, USA).
Tyrosinase inhibition assays were carried out as described in Rosa et al.. Briefly, 25 μL of tyrosinase enzyme solution (135 U/mL), 25 μL of ten serial concentrations of the compounds (dissolved in 0.1 M phosphate buffer pH 6.8 containing no more than 2.5% DMSO, yielding final concentrations of 0.3–150 μM), and 100 μL phosphate buffer were mixed in a 96-well plate and incubated at 37 ± 2 °C for 20 min. Then, 50 μL of 1.66 mM of tyrosine solution in 0.1 M phosphate buffer (pH 6.8) were added. Enzyme activity was measured at 490 nm every 10 min for 30 min in a Bio-Rad Model 680 Microplate Reader (Bio-Rad Laboratories, Inc., Hercules, CA, USA). In cases where the samples were very active at the minimum concentration tested, lower concentration ranges were assayed. […] The experiments were conducted in triplicate. For each concentration, enzyme activity was calculated as a percentage of the velocities compared to those of the assay using buffer without any inhibitor. […] The type of inhibition and inhibition parameters of the compounds, i.e., the Km and Vmax, were determined by Lineweaver–Burk plot analysis using various concentrations of L-tyrosine.

tyrosinase = details: cited from earlier work; for IC50: read-out: IC50 tyrosinase inhibition (literature)
[4] = ROS assay for photoreactivity (singlet oxygen and superoxide anion generation); format: physicochemical; details: for ROS assay: superoxide anion (O2^•−) / ROS assay: singlet oxygen (^1O2): 200 µM final concentration, mean ± SEM, n = 2; for ROS assay: superoxide anion (O2^•−): cut-off O2^•− ≥ 20 = photoreactive; for ROS assay: singlet oxygen (^1O2): cut-off ^1O2 ≥ 25 = photoreactive; for Photoreactivity classification from ROS assay: photoreactive if SO ≥ 25 and/or SA ≥ 20
Protocol: In addition to light absorption, the generation of reactive species from chemicals following the absorption of UV-visible light is seen as a key determinant for causing direct phototoxic reactions. The ROS assay can be used as an in chemico screening tool for evaluating the photoreactivity of chemicals. […] These depigmenting agents were tested at 200 μM (final concentration) to identify precipitation, coloration, or any other interference in the reaction mixture.
The ROS assay was performed as previously described in Aguiar et al. and the OECD ROS assay for photoreactivity protocol. Stock solutions of all substances were prepared at 10 mM in DMSO or 20 mM sodium phosphate buffer (NaPB, pH 7.4) and used within the same day. SO generation was detected by spectrophotometric measurement of RNO bleaching, followed by a decrease in the absorbance of RNO at 440 nm. SA generation was detected by observing the reduction of NBT to NBT^+, the formation of which can be monitored spectrophotometrically at 560 nm. The depigmenting agents were tested at a final concentration of 200 μM. When precipitation was observable (using a microscope) before light exposure, a lower concentration (20 μM) of the depigmenting agents was tested.
Photoreactivity of the test substances was evaluated according to the result (mean of triplicate determinations) from the ROS assay: a test substance was classified as a photoreactive substance when an SO value of 25 or more and/or an SA value of 20 or more was measured; in turn, it was considered to be a non-photoreactive substance when values of less than 25 for SO and less than 20 for SA were recorded.

B-16V melanocytes = test: Cell viability (PrestoBlue) in B-16V melanocytes; details: 48 h treatment, 10–1000 µM in water
Protocol: as §1, §2, §3, §4

B16 mouse melanoma cells = details: cited from earlier work

Row | MEC (molar extinction coefficient) [1] | Absorbance (10 µg mL^−1) [1] | % Inhib (150 µM) of tyrosinase activity [3] [%] | ROS assay: superoxide anion (O2^•−) [4] | ROS assay: singlet oxygen (^1O2) [4] | Photoreactivity classification from ROS assay [4] | Compound | further results
1 | ε = 3471 L mol^−1 cm^−1 | 0.2088 | 100 | 13 ± 1 | 1 ± 0 | non-photoreactive | CCCCc1ccc(O)cc1O [4BR, 4-butylresorcinol] | IC50 at 48 h [2]: 97.6 ± 11.6 µM; Type of tyrosinase inhibition (Lineweaver-Burk plot) ([3]; Vmax constant, Km increases with inhibitor concentration): competitive inhibitor; IC50 (tyrosinase): 21 µM and 13.5 µM
2 |  | 0.2203 | 52.59 | inconclusive | inconclusive |  | C=C[C@@](C)(/C=C/c1ccc(O)cc1)CCC=C(C)C [BAK, bakuchiol] | IC50 at 48 h [2]: 43.4 ± 0.9 µM; IC50 (tyrosinase; at 1 mM of L-tyrosine): 37.2 ± 5.18 µM; Solubility / precipitation in ROS assay reaction mixture ([4]; DMSO or 20 mM NaPB pH 7.4, reaction mixture for SO and SA, 200 µM, lowest concentration 20 µM): showed precipitation in the reaction mixture
3 |  |  | 99.15 |  |  |  | O=c1cc(CO)occ1O [Kojic acid, kojic acid, reference compound] | 

The next lines start with the molecule.

Row | Compound | MEC (molar extinction coefficient) [1] | Absorbance (10 µg mL^−1) [1] | % Inhib (150 µM) of tyrosinase activity [3] [%] | ROS assay: superoxide anion (O2^•−) [4] | ROS assay: singlet oxygen (^1O2) [4] | Photoreactivity classification from ROS assay [4] | further results
4 | O=C1O[C@H]([C@@H](O)CO)C(O)=C1O [AA, ascorbic acid, reference compound] | ε = 2793 L mol^−1 cm^−1 | 0.1586 |  | 26 | 671 |  | Effect on B-16V cell viability (B-16V melanocytes): did not interfere with cell viability; Prevention of chromophore formation in tyrosinase assay ([3]; 150 µM, cannot be interpreted uniquely as tyrosinase inhibition): 58.70%
5 | O=C1O[C@H]([C@@H](O)CO)C(O)=C1O[C@H]1O[C@H](CO)[C@@H](O)[C@H](O)[C@H]1O [AA-2G, ascorbyl glucoside] | ε = 1025 L mol^−1 cm^−1 | 0.0303 | 11.17 | 1 ± 0 | 1 ± 1 | non-photoreactive | 
6 | OC[C@H]1O[C@H](Oc2ccc(O)cc2)[C@H](O)[C@@H](O)[C@@H]1O [ABT, α-arbutin] | ε = 2004 L mol^−1 cm^−1 | 0.0736 | 27.04 | 0 ± 0 | 19 ± 1 | cannot be classified as photoreactive | Percentage of tyrosinase inhibition (literature) (tyrosinase; at 125 µM): ≈ 30%; Photoreactivity classification from ROS assay ([4]; listed as α-arbutin): non-photoreactive
7 | NC[C@H]1CC[C@H](C(=O)O)CC1 [TA, tranexamic acid, reference compound] | ε = 380 L mol^−1 cm^−1 | 0.0242 | 13.20 |  |  |  | Effect on B-16V cell viability (B-16V melanocytes): did not interfere with cell viability
8 | Oc1ccc(O)cc1 [hydroquinone] |  |  |  |  |  |  | Concentration achieving complete growth inhibition (B16 mouse melanoma cells): 1.25 to 2.5 µg/mL; Concentration initiating growth inhibition (B16 mouse melanoma cells): 0.625 µg/mL
